Test results: patent US6506339B1, “Method of sterilization” (Biomedical Design, Inc., priority 1997, dated 2003)

What was measured:
Format in all cases: cell-based
[1] = tested on: Mycobacterium Chelonae ATCC 35752; assay: Sterilization test, Mycobacterium chelonae in sterile cups at room temperature (Example 1); design: key: (+) Indicates growth; (−) indicates no growth; settings: 10 mM EDC+1 mM Sulfo-NHS
Protocol: Porcine aortic roots are fixed by cross-linking according to the method described in U.S. Pat. No. 5,447,536. After fixation, the valves are stored in 10 mM HEPES, 0.85% NaCl, 20% isopropyl alcohol, pH 7.4, at 4° C. The sterility tests described in the following examples are in most cases conducted in the presence of bioprosthetic heart valve tissue; when such tissue is not present, the solutions are simply filtered through a 0.45 micron filter attached to a funnel (filter funnel). The filters are then rinsed with peptone water to eliminate residual chemicals on the membrane that may prevent growth of the organisms tested. Such membrane filters are then incubated on TSA plates at about 32° to 33° C., e.g. 32.5° C. When an aortic valve is inoculated with microorganisms for test purposes and then submitted to sterilization, the solution is filtered as described above. The aortic valve tissue is then washed for 20 minutes in a reciprocating shaker in the presence of peptone water containing Tween 80 in order to extract all indigenous spores or microorganisms from the tissue. This solution is filtered and then incubated as described above. All microbiological testing is performed in a biological laminar flow hood to prevent contamination. The shrinkage temperature and the proteolytic (collagenase and protease) degradation tests are conducted as previously described in the '536 patent. Resistance to calcification is assessed by subdermal implantation of sterilized leaflets and aortic wall coupons in young rats, as also described in the '536 U.S. patent.
Mycobacterium Chelonae ATCC 35752 (˜10^5) was inoculated in sterile cups. A 10 mM HEPES, 0.85% NaCl, pH 6.5 solution containing 10 mM EDC and 1 mM Sulfo-NHS in the presence or absence of 20% isopropyl alcohol was maintained in contact with the bacteria in the cups for various periods of time (treatment duration). The cups were maintained at room temperature, and the solutions were then filtered. The filters were then incubated at about 32-33° C. for up to 6 weeks (incubation duration) using either Trypticase Soy Agar (TSA) plates or Trypticase Soy Broth (TSB). All inoculations were done in duplicate.

[2] = tested on: Bacillus subtilis (niger) spores; assay: Sterilization without isopropyl alcohol at 55° C. (Example 4D)
Protocol: An experiment similar to that of Example 4A was carried out using a higher temperature of 55°. Bacillus subtilis (niger) spores at levels of 1.32×10^6 (Log10=6.12) were inoculated for approximately 10 minutes in sterile cups. Solutions (50 ml) of 5 and 50 mM EDC in 10 mM TRIS, 0.85% NaCl, pH 6.5 were prewarmed to 55° C. and then rapidly added to the cups. The cups were incubated at 55° C. for 1 and 10 hours; the solutions were then diluted and filtered in order to collect microorganisms. The filters were rinsed with a 0.1% peptone water solution and incubated on TSA plates for up to 14 days. The plates are examined daily for growth. […] This can be extrapolated to achieving complete kill in 2-3 hours. […] Although this cannot be extrapolated to complete kill over a greater length of time because of the low level of EDC remaining after 10 hours, it is expected that sterilization treatment using a concentration at least about 15 mM EDC at 55° C. for 10 hours would result in complete kill.

[3] = tested on: Bacillus subtilis (niger) spores; assay: D values of EDC without isopropyl alcohol, 40° C. (Example 4A); settings: no isopropyl alcohol; for incubation duration necessary to achieve 6 log reduction: calculated from D value
Protocol: The following experiment was carried out to assess the effectiveness of a coupling agent, such as EDC, in the absence of isopropyl alcohol or an equivalent alkanol. Bacillus subtilis (niger) spores at levels of 1.5×10^6 were inoculated in sterile cups for approximately 10 minutes. Solutions (50 ml) of 25, 37.5 and 50 mM EDC in 10 mM TRIS, 0.85% NaCl, pH 6.5, which contain no isopropyl alcohol, were prewarmed to 40° C. and then rapidly added to the cups. The cups were incubated at 40° C. for 0.5, 1, 6, 24 and 48 hours; then, the solutions were diluted and filtered in order to collect microorganisms. Next, the filters were rinsed with a 0.1% peptone water solution to eliminate any residual EDC and then incubated on TSA plates for up to 14 days. The plates were examined every day for growth, with the colony forming units (CFUs) being counted, and resulting D values were calculated. Such D values represent the duration (in minutes) of incubation to decrease the level of spores by one log, i.e. eliminating 90% of the spores population.

What does the source list for `CCN=C=NCCCN(C)C.Cl` [EDC, 1-ethyl-3(3-dimethylaminopropyl)carbodiimide hydrochloride]?
growth ([1]; 20% isopropyl alcohol, treatment 0 hour, incubation 3 Week, TSA): +,+; growth ([1]; 20% isopropyl alcohol, treatment 0 hour, incubation 3 Week, TSB): +,+; growth ([1]; 20% isopropyl alcohol, treatment 0 hour, incubation 4 Week, TSA): +,+; growth ([1]; 20% isopropyl alcohol, treatment 0 hour, incubation 4 Week, TSB): +,+; growth ([1]; 20% isopropyl alcohol, treatment 0 hour, incubation 6 Week, TSA): +,+; growth ([1]; 20% isopropyl alcohol, treatment 0 hour, incubation 6 Week, TSB): +,+; growth ([1]; no isopropyl alcohol, treatment 0 hour, incubation 1 Day, TSA): +,+; growth ([1]; no isopropyl alcohol, treatment 0 hour, incubation 1 Day, TSB): +,+; growth ([1]; no isopropyl alcohol, treatment 0 hour, incubation 1 Week, TSA): +,+; growth ([1]; no isopropyl alcohol, treatment 0 hour, incubation 1 Week, TSB): +,+; growth ([1]; no isopropyl alcohol, treatment 0 hour, incubation 3 Week, TSA): +,+; growth ([1]; no isopropyl alcohol, treatment 0 hour, incubation 3 Week, TSB): +,+; growth ([1]; no isopropyl alcohol, treatment 0 hour, incubation 4 Week, TSA): +,+; growth ([1]; no isopropyl alcohol, treatment 0 hour, incubation 4 Week, TSB): +,+; growth ([1]; no isopropyl alcohol, treatment 0 hour, incubation 6 Week, TSA): +,+; growth ([1]; no isopropyl alcohol, treatment 0 hour, incubation 6 Week, TSB): +,+; growth ([1]; no isopropyl alcohol, treatment 12 hours, incubation 1 Day, TSA): +,+; growth ([1]; no isopropyl alcohol, treatment 12 hours, incubation 1 Day, TSB): +,+; growth ([1]; no isopropyl alcohol, treatment 12 hours, incubation 1 Week, TSA): +,+; growth ([1]; no isopropyl alcohol, treatment 12 hours, incubation 1 Week, TSB): +,+; growth ([1]; no isopropyl alcohol, treatment 12 hours, incubation 3 Week, TSA): +,+; growth ([1]; no isopropyl alcohol, treatment 12 hours, incubation 3 Week, TSB): +,+; growth ([1]; no isopropyl alcohol, treatment 12 hours, incubation 4 Week, TSA): +,+; growth ([1]; no isopropyl alcohol, treatment 12 hours, incubation 4 Week, TSB): +,+; growth ([1]; no isopropyl alcohol, treatment 12 hours, incubation 6 Week, TSA): +,+; growth ([1]; no isopropyl alcohol, treatment 12 hours, incubation 6 Week, TSB): +,+; growth ([1]; no isopropyl alcohol, treatment 24 hours, incubation 1 Day, TSA): −,−; growth ([1]; no isopropyl alcohol, treatment 24 hours, incubation 1 Day, TSB): −,−; growth ([1]; no isopropyl alcohol, treatment 24 hours, incubation 1 Week, TSA): +,+; growth ([1]; no isopropyl alcohol, treatment 24 hours, incubation 1 Week, TSB): +,+; growth ([1]; no isopropyl alcohol, treatment 24 hours, incubation 3 Week, TSA): +,+; growth ([1]; no isopropyl alcohol, treatment 24 hours, incubation 3 Week, TSB): +,+; growth ([1]; no isopropyl alcohol, treatment 24 hours, incubation 4 Week, TSA): +,+; growth ([1]; no isopropyl alcohol, treatment 24 hours, incubation 4 Week, TSB): +,+; growth ([1]; no isopropyl alcohol, treatment 24 hours, incubation 6 Week, TSA): +,+; growth ([1]; no isopropyl alcohol, treatment 24 hours, incubation 6 Week, TSB): +,+; growth ([1]; no isopropyl alcohol, treatment 48 hours, incubation 1 Day, TSA): −,−; growth ([1]; no isopropyl alcohol, treatment 48 hours, incubation 1 Day, TSB): −,−; growth ([1]; no isopropyl alcohol, treatment 48 hours, incubation 1 Week, TSA): −,−; growth ([1]; no isopropyl alcohol, treatment 48 hours, incubation 1 Week, TSB): −,−; growth ([1]; no isopropyl alcohol, treatment 48 hours, incubation 3 Week, TSA): −,−; growth ([1]; no isopropyl alcohol, treatment 48 hours, incubation 3 Week, TSB): −,−; growth ([1]; no isopropyl alcohol, treatment 48 hours, incubation 4 Week, TSA): −; growth ([1]; no isopropyl alcohol, treatment 48 hours, incubation 4 Week, TSB): +; growth ([1]; no isopropyl alcohol, treatment 48 hours, incubation 6 Week, TSA): −; growth ([1]; no isopropyl alcohol, treatment 48 hours, incubation 6 Week, TSB): +; growth ([1]; no isopropyl alcohol, treatment 72 hours, incubation 1 Day, TSA): −,−; growth ([1]; no isopropyl alcohol, treatment 72 hours, incubation 1 Day, TSB): −,−; growth ([1]; no isopropyl alcohol, treatment 72 hours, incubation 1 Week, TSA): −,−; growth ([1]; no isopropyl alcohol, treatment 72 hours, incubation 1 Week, TSB): −,−; growth ([1]; no isopropyl alcohol, treatment 72 hours, incubation 3 Week, TSA): −,−; growth ([1]; no isopropyl alcohol, treatment 72 hours, incubation 3 Week, TSB): −,−; growth ([1]; no isopropyl alcohol, treatment 72 hours, incubation 4 Week, TSA): −,−; growth ([1]; no isopropyl alcohol, treatment 72 hours, incubation 4 Week, TSB): −,−; growth ([1]; no isopropyl alcohol, treatment 72 hours, incubation 6 Week, TSA): −; growth ([1]; no isopropyl alcohol, treatment 72 hours, incubation 6 Week, TSB): +; log reduction ([2]; 5 mM EDC, 1 hour, 1.32×10^6 spores, no isopropyl alcohol): 0.512; log reduction ([2]; 5 mM EDC, 10 hours, 1.32×10^6 spores, no isopropyl alcohol): 4.46; inactivation of spores ([2]; 50 mM EDC, 10 hours, 1.32×10^6 spores, no isopropyl alcohol): effectively inactivated these spores; time to complete kill (extrapolated) ([2]; 50 mM EDC, extrapolated from the one-hour log reduction): 2 to 3 h; log reduction ([2]; 50 mM EDC, one hour, 1.32×10^6 spores, no isopropyl alcohol): 3.04; D value (duration of incubation to decrease the level of spores by one log) ([3]; 25 mM EDC): 203 minutes; incubation duration necessary to achieve 6 log reduction ([3]; 25 mM EDC): 24 hours; D value (duration of incubation to decrease the level of spores by one log) ([3]; 37.5 mM EDC): 106 minutes; incubation duration necessary to achieve 6 log reduction ([3]; 37.5 mM EDC): 11 hours; D value (duration of incubation to decrease the level of spores by one log) ([3]; 50 mM EDC): 86 minutes; incubation duration necessary to achieve 6 log reduction ([3]; 50 mM EDC): 9 hours
